The values that follow come from publication PMC3673938, “Two Distinct Calmodulin Binding Sites in the Third Intracellular Loop and Carboxyl Tail of Angiotensin II (AT1A) Receptor” (PLoS ONE, 2013).

Where no end group is shown, it is not given here.

The subject of assay [1] is purified bovine brain CaM. Briefly: GST-fusion protein pull-down with purified bovine brain CaM. The following applies: for relative binding efficiency for CaM versus wild type (in words): GST pull-down with fixed concentrations, data not shown; for relative binding efficiency for CaM / interaction with purified CaM (pull-down, in words): 50 pmol GST-fusion protein; for relative binding efficiency for CaM: purified bovine brain CaM, 100 mM Tris-HCl pH 7.5, 0.1 mM CaCl2, immunoblot density ratio, 5 independent experiments; for interaction with purified CaM (pull-down, in words): 50 pmol purified bovine CaM, 100 mM Tris-HCl pH 7.5, Ca2+ dependent (0.1 mM CaCl2 vs 1 mM EGTA), repeated five times. In kind it is binding. The protocol:
(§1) GST-fusion proteins were expressed in E. coli BL21 strain cells, and purified by affinity chromatography using immobilized glutathione sepharose 4B beads. Proteins were eluted by reduced glutathione in 50 mM Tris-HCl buffer (pH 8.0), and then concentrated with Centricon filters with 3 kDa MW cut-off. The eluted proteins were either used immediately or stored at −80°C for future use. For GST-fusion protein pull-down assays, fusion proteins were incubated with either cell lysates or purified protein(s) at 4°C for 3 hours, following which glutathione-sepharose 4B beads were added and incubation continued at 4°C for 1 hour. The beads were then recovered by brief centrifugation, followed by 4 washes with the corresponding incubation buffer. The fusion proteins and the proteins to which they were bound were then separated by SDS-PAGE, and identified by staining with Coomassie blue or by immunoblot.
Figure 1 Interactions of the i3 loop and carboxyl tail of the AT1A receptor with CaM. A, Construction of GST-fusion proteins. Upper panel illustrates a schematic structure of the AT1A receptor and constructs of GST-fusion proteins of the i3 loop and carboxyl tail of the receptor. The numbers represent positions of amino acids in the receptor. The GST-fusion proteins were constructed, expressed in E. coli, purified by using gluthathione-sepharose 4B beads, separated by SDS-PAGE, and stained by Coomassie blue (lower panel). B. Interactions of the i3 loop or carboxyl tail of AT1A receptor with CaM in rat brain lysates (upper panel) and with purified bovine brain CaM (lower panel). 50 pmol of GST-fusion proteins were incubated with 500 µg of rat brain lysates in 250 µl of buffer containing 20 mM Tris-HCl, 70 mM NaCl, pH 7.5 with 1 mM EGTA or 0.1 mM CaCl2. Interacting protein complexes were pulled down by gluthathione-sepharose 4B beads, and visualized by immunoblot with a specific anti-CaM antibody. The same methods were applied to interactions with pure bovine CaM (50 pmol), except that the buffer contained 100 mM Tris-HCl (pH 7.5). These experiments were repeated five times with similar results.
Figure 3 CaM binding sites in the i3 loop and carboxyl tail of the AT1A receptor. A, Schematic representation of constructs of GST-fusion proteins. Four GST-fusion proteins containing truncated peptides in the i3 loop and carboxyl tail of the receptor were constructed, including GST-N-terminus of the i3 loop (GST-ATi3N), GST-C-terminus of the i3 loop (GST-ATi3C), GST-N-terminus of carboxyl tail (GST-ATctN) and GST-C-terminus of carboxyl tail (GST-ATctC). The numbers under the first or the last residues represent amino acid positions in the receptor. B, Interaction of GST-fusion proteins with CaM. The GST-fusion proteins (50 pmol) were incubated with purified bovine CaM (50 pmol) in 250 µl of buffer containing 100 mM Tris-HCl (pH 7.5) with 0.1 mM CaCl2. Proteins were pulled down by gluthathione-sepharose 4B beads, following which immunoblots were probed with a specific anti-CaM antibody. These experiments were repeated five times with similar results.
Figure 5 Effect of point mutations in ATi3N or ATctN on their interactions with CaM. A. Modeled structures of CaM-ATi3(214–231) and CaM-ATct(302–317). The complexes of CaM and CaM binding motif in the i3 loop ATi3(214–231) or the carboxyl terminal tail ATct(302–317) of the receptor were modeled as described in Experimental Procedures. The target peptides are colored in red. […] Calcium atoms are shown as orange spheres. The N- and C- termini of CaM are also labeled. Helices and sheets in CaM are colored in green and yellow, respectively. B. Effect of point mutations at ATi3N or ATctN on their interaction with CaM. […]

Assay [2] deals with AT1A receptor-CaM interaction. Briefly: BRET between AT1A receptor-eYFP and RLuc-CaM / CaM-RLuc in HEK293 cells. In kind it is cell-based, Human Embryonic Kidney 293 (HEK293) cells. To be noted: 100 nM Ang II at 2, 4 and 6 minutes, compared with no Ang II.
Description: We first stably transfected HEK293 cells with the AT1A receptor-eYFP vector by using lipofectamine 2000 solution according to the vendor’s (Invitrogen) instructions. […] The co-transfectants were detached with PBS buffer containing 1 mM EDTA, and distributed into 96 well plates at 10^5 cells/well (OptiPlate 96, Greiner Bio-One. Longwood, FL). Fluorescence measurements were acquired using a Victor2 multilabel plate reader (Perkin Elmer Life Sciences, Shelton, CT). […] The emission of light from YFP was measured both before and after stimulation with 100 nM of Ang II.
48 hours later, the cotransfectants were washed with saline pre-warmed at 37°C and calibrated in saline in a 37°C incubator for 30 minutes. […] Control co-transfectants were treated with equal amounts of saline (vehicle).
The target of assay [3] is T1, CaM purified from bovine brain (dansyl-CaM) (Bos taurus, UniProt P62157).
T1 construct: CaM and G protein βγ subunits purified from bovine brain; purchased Calbiochem (La Jolla, CA); host or cells: bovine brain (tissue-purified)
Briefly: Dansyl-CaM fluorescence emission spectrum shift. In kind it is binding. The following applies: dansyl-CaM 106 nM, 500 nM peptide + 0.1 mM calcium, 1 hour room temperature; shifted from 521 nm (EGTA); three experiments. The protocol: Dansyl-CaM was synthesized according to a standard method, [46], [47], [48]. 500 µl of CaM purified from bovine brain (2 mg/ml in a buffer containing 20 mM NH4HCO3, pH 7.4 and 1 mM CaCl2) was mixed with 1 µl of dansyl chloride (100 mg/ml in acetone) at 4°C C for 1 hour with agitation. The mixture was then applied to a Centricon 4 concentrator with 10 kDa MW cut-off to remove the unincorporated dye. Efficiencies of dansylation (0.18–0.34 mol of dansyl moiety per mol of CaM) were calculated by measurement of absorption at 320 nm using a molar extinction coefficient of 3400 M-1cm-1. For conformational studies of dansyl-CaM, fluorescence was monitored at room temperature with a SLMAminco model 8000 series 2 spectrometer (Spectronic Instruments, Rochester, NY) at an excitation wavelength of 340 nm, and emission wavelengths from 425 to 600 nm.
Figure 4 CaM binding motifs in the i3 loop and carboxyl terminal tail of the AT1A receptor. A, Alignment of CaM binding motifs. […] Fluorescence emission spectra of dansyl-CaM (106 nM) at an emission wavelength of 425–600 nm were measured in the presence of 10 mM EGTA, 0.1 mM calcium, 500 nM ATi3 (214–231) +0.1 mM calcium, and 500 nM ATct (302–317) +0.1 mM calcium. […] Spectra were corrected for background buffer fluorescence. […]

Assay [4] concerns G protein βγ subunits. Description: GST-fusion protein pull-down of G protein βγ subunits, with or without CaM. In kind it is binding, bovine. The following applies: 2 pmol GST-fusion protein, 2 pmol Gβγ, CaM pre-incubated 30 minutes, 20 mM Tris-HCl, 70 mM NaCl, 0.1 mM CaCl2, pH 7.5; 4 or 5 experiments. The protocol:
as §1
Figure 7 Effect of CaM on G protein βγ subunit interaction with wild ATi3 or ATct. A. Interaction of G protein βγ subunits and ATi3 or ATct. 50 pmol of GST-ATi3(213–242) or GST-ATct(297–359) were incubated with different amounts of G protein Gβγ subunits in a buffer containing 20 mM Tris-HCl and 70 mM NaCl (pH 7.5). Interactions were assessed by GST-fusion protein pull-down assay, and blots were probed with a specific antibody against Gβ subunits (upper panel). 1 pmol of Gβγ subunit was interacted with different amounts of GST-ATi3(213–242) and GST-ATct(297–359). Interaction was assessed by immunoblot against Gβ subunits (lower panel). B. CaM inhibits the interaction between G protein Gβγ subunits and ATi3 or ATct. 2 pmol of GST-ATi3(213–242) or GST-ATct(297–359) were incubated with different concentrations of pure bovine brain CaM for 30 minutes in a buffer (20 mM Tris-HCl and 70 mM NaCl with 0.1 mM CaCl2, pH 7.5) following which 2 pmol of Gβγ subunits were added and incubated for 1 hour. GST-fusion proteins and their interacting proteins were pulled down by gluthathione-sepharose 4B beads, and subjected to immunoblot. Blots were probed with a specific antibody against Gβ subunits. The summary graph represents means ± S.E. from four independent experiments. C. Effects of CaM on the interactions between G protein βγ subunits and mutated ATi3 and ATct. The method is same as the described in the Figure 7B, except that we used mutated GST-fusion proteins, GST-ATi3(213–242)W219A, ATct(297–359)F309A, and ATct(297–359)F313A. The summary graph represents mean ± S.E. from 4 or 5 independent experiments.

Assay [5] relates to CaM in rat brain lysates. Description: GST-fusion protein pull-down from rat brain lysates. The following applies: 50 pmol GST-fusion protein, 500 µg rat brain lysates, 20 mM Tris-HCl, 70 mM NaCl, pH 7.5; Ca2+ dependent; repeated five times. In kind it is binding. The protocol:
as §1
Figure 1 Interactions of the i3 loop and carboxyl tail of the AT1A receptor with CaM. A, Construction of GST-fusion proteins. Upper panel illustrates a schematic structure of the AT1A receptor and constructs of GST-fusion proteins of the i3 loop and carboxyl tail of the receptor. The numbers represent positions of amino acids in the receptor. […]

Turning to “GST-ATctN(297–324)Y312A: Y312A mutant of GST-ATctN(297–324) ({GST}-LNPLFYGFLGKKFKKAFLQLLKYIPPKA)”, the “relative binding efficiency for CaM versus wild type (in words)” value (“relative binding efficiency … (in words)” for short) in assay [1] is on record as “did not have reduced binding efficiencies”.
Regarding “GST-ATctN(297–324)F309A: F309A mutant of GST-ATctN(297–324) ({GST}-LNPLFYGFLGKKAKKYFLQLLKYIPPKA)”, the “relative binding efficiency for CaM” value in assay [1] was 29 % of wild type.
The same measure, in the same setting: then “GST-ATctN(297–324)F313A: F313A mutant of GST-ATctN(297–324) ({GST}-LNPLFYGFLGKKFKKYALQLLKYIPPKA)”, with 22 % of wild type.
In the case of “ATctC (325–359): GST-C-terminus of carboxyl tail, GST-KSHSSLSTKMSTLSYRPSDNMSSSAKKPASCFEVE ({GST}-KSHSSLSTKMSTLSYRPSDNMSSSAKKPASCFEVE)”, the “interaction with purified CaM (pull-down, in words)” value (shortened to “interaction with purified CaM”) in assay [1] is recorded as “no interactions with CaM”.
Regarding “Angiotensin II (DRVYIHPF; Angiotensin-2; UniProt P01019 25-32, looked up) [Ang II, AT1A receptor agonist]”, the “effect on magnitude of the BRET ratio of the co-transfectants” value in assay [2] is “did not alter”.
With “GST-ATi3N(213–234)Y215A: Y215A mutant of GST-ATi3N(213–234) ({GST}-TSATLIWKALKKAYEIQKNKPR)”, the “relative binding efficiency … (in words)” value in assay [1] was “did not have reduced binding efficiencies”.
As to SYTLIWKALKKAYEIQKN [ATi3(214–231)], in assay [3], the “λmax of dansyl-CaM fluorescence emission spectrum in presence of peptide” value came to 486 nm.
As to “ATi3N (213–234): GST-N-terminus of the i3 loop, GST-TSYTLIWKALKKAYEIQKNKPR ({GST}-TSYTLIWKALKKAYEIQKNKPR)”, the “interaction with purified CaM” value in assay [1] was “interact with purified CaM”.
For the substance “GST-ATi3(W219A): W219A mutant of GST-ATi3(213–242) ({GST}-TSYTLIAKALKKAYEIQKNKPRNDDIFRII)”, in assay [4], the “Gβγ binding to GST-fusion protein in the presence of 2 pmol of CaM” value amounted to 95% and the “Gβγ binding to GST-fusion protein in the presence of 10 pmol of CaM” value is 94%.
As for “ATi3C (235–242): GST-C-terminus of the i3 loop, amino acids 235–242, peptide NDDIFRIT”, the “interaction with purified CaM” value in assay [1] is “no interactions with CaM”.
Consider “GSTATi3N(213–234)W219A: W219A mutant of GST-ATi3N(213–234) ({GST}-TSYTLIAKALKKAYEIQKNKPR)”, for which, in assay [1], the “relative binding efficiency for CaM” value is given as 32 % of wild type.
Regarding “ATctN (297–324): GST-N-terminus of carboxyl tail, GST-LNPLFYGFLGKKFKKYFLQLLKYIPPKA ({GST}-LNPLFYGFLGKKFKKYFLQLLKYIPPKA)”, the “interaction with purified CaM” value in assay [1] was “interact with purified CaM”.
As for “GST-ATi3N(213–234)L217A: L217A mutant of GST-ATi3N(213–234) ({GST}-TSYTAIWKALKKAYEIQKNKPR)”, the “relative binding efficiency … (in words)” value in assay [1] is reported as “did not have reduced binding efficiencies”.
“GSTATi3(213–242): GST fused to the i3 loop of AT1A receptor, GST-TSYTLIWKALKKAYEIQKNKPRNDDIFRII ({GST}-TSYTLIWKALKKAYEIQKNKPRNDDIFRII)”: the “association with CaM from rat brain lysates (pull-down, in words)” value in assay [5] was “associated”. The “interaction with purified CaM” value in assay [1] is on record as “associated”. In assay [4], the “Gβγ binding to GST-fusion protein in the presence of 2 pmol of CaM” value was 77% and the “Gβγ binding to GST-fusion protein in the presence of 10 pmol of CaM” value worked out at 60%.
